Experimental data reported in US10385070B2, “Chroman-spirocyclic piperidine amides as modulators of ion channels” (VERTEX PHARMACEUTICALS INCORPORATED, priority 2011, dated 2019).

biological target: human NaV subtype, like NaV 1.7 (Homo sapiens, UniProt Q15858); test: E-VIPR optical membrane potential assay with electrical stimulation; assay type: cell-based; conditions: active against one or more sodium channels; assay and NaV subtype not specified for Table 3; read-out: IC50 Binned Activity Data
Sequence (Q15858 whole entry): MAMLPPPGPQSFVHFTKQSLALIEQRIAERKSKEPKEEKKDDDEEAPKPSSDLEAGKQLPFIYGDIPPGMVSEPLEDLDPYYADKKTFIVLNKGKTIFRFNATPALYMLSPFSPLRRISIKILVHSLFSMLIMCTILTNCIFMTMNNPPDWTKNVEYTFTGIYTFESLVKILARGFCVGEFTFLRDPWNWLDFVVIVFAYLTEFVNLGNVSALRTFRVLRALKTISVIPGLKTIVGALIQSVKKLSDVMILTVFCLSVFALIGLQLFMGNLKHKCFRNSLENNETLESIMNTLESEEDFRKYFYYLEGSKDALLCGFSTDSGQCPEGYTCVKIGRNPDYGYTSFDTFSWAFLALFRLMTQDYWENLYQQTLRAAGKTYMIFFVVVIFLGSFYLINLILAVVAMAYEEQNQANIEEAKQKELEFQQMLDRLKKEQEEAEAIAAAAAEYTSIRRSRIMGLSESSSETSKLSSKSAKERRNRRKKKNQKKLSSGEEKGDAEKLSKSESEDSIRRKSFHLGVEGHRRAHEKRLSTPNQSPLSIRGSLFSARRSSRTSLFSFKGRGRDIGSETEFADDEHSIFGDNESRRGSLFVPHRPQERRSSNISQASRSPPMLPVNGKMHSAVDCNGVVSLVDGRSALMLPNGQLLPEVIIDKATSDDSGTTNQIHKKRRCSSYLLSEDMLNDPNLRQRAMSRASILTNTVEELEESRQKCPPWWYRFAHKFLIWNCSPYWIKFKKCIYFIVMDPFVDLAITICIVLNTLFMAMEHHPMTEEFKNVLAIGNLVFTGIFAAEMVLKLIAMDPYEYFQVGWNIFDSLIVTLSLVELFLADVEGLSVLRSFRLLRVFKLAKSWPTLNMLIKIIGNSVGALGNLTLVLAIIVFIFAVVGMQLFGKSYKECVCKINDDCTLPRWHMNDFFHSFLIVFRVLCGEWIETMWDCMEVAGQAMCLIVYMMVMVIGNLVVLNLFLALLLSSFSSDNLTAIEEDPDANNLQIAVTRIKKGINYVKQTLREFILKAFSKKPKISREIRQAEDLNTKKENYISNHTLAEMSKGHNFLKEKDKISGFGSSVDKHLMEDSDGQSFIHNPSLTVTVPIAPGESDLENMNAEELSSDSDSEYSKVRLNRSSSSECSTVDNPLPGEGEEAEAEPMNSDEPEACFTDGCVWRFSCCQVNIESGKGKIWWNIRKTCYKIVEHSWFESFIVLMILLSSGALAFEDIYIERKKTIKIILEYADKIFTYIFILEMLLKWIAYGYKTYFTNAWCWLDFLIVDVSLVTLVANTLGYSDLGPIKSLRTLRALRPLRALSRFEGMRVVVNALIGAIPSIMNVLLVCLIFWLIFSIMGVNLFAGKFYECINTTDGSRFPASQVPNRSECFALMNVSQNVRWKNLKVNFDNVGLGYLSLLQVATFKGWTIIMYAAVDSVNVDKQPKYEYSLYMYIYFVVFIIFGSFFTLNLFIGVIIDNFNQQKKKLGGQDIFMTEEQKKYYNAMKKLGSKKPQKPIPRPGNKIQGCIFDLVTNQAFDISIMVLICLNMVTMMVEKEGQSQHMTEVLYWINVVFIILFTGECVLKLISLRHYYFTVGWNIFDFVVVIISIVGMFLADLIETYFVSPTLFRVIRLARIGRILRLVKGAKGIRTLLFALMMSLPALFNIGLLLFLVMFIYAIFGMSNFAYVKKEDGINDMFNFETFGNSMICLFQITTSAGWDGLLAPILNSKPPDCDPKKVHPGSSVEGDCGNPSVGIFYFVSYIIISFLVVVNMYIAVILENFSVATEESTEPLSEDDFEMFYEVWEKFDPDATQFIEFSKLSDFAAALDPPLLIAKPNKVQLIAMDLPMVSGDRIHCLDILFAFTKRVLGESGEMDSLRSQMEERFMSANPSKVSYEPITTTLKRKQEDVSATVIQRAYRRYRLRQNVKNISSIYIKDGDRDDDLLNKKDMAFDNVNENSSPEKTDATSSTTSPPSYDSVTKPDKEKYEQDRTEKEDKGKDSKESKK
In short: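 HEK cells expressing human NaV (e.g. NaV1.7), loaded with CC2-DMPE/DiSBAC6(3) FRET dyes, compounds 20–35 min at room temperature, 0.625% DMSO, KCl 4.5–20 mM. Electrical stimulation ~9 s at 400 Hz scan; background-subtracted 460/580 nm emission ratios normalized; tetracaine 125 µM as positive control.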

Structure (SMILES)	IC50
CC[C@H](C)Nc1ccc(C(=O)N2CCC3(CC2)C[C@@H](OC(C)C)c2cc(F)ccc2O3)nc1 [Compound 64]	≤ 2000 nM
Cc1cc(C(=O)N2CCC3(CC2)C[C@H](OC(C)C)c2ccccc2O3)ccc1C(C)(C)O [Compound 26]	≤ 2000 nM
COc1cc(C(=O)N2CCC3(CC2)CC(Oc2ccccc2C#N)c2ccccc2O3)ccc1OC(C)C (centres unmarked) [Compound 152]	≤ 2000 nM
COc1cc(C(=O)N2CCC3(CC2)C[C@H](OC(C)C)c2ccccc2O3)ccc1OC(C)C [Compound 171]	≤ 2000 nM
Cc1cc(C(=O)N2CCC3(CC2)CC(O)c2c(F)cccc2O3)ccc1OC(C)C (centres unmarked) [Compound 138]	≤ 2000 nM
CCOc1ccc(C(=O)N2CCC3(CC2)C[C@@H](OC(C)C)c2ccccc2O3)cc1F [Compound 125]	≤ 2000 nM
CCOC1CC2(CCN(C(=O)c3ccc(OC(C)C)c(OC)c3)CC2)S(=O)(=O)c2ccccc21 (centres unmarked) [Compound 24]	≤ 2000 nM
CC(C)OCC1CC2(CCN(C(=O)c3ccc(C(C)(C)O)cc3)CC2)Oc2ccccc21 (centres unmarked) [Compound 35]	≤ 2000 nM
CCO[C@@H]1CC2(CCN(C(=O)c3ccc(S(=O)(=O)C(F)F)cc3)CC2)Oc2ccc(F)cc21 [Compound 121]	> 5000 nM
COc1cc(C(=O)N2CCC3(CC2)CC(COCC(F)F)c2ccccc2O3)ccc1OC(C)C (centres unmarked) [Compound 23]	≤ 2000 nM
COc1cc(C(=O)N2CCC3(CC2)CC(OC2CC2)c2ccccc2O3)ccc1OC(C)C (centres unmarked) [Compound 127]	≤ 2000 nM
COc1cc(C(=O)N2CCC3(CC2)CC(COC(F)F)c2ccccc2O3)ccc1OC(C)C (centres unmarked) [Compound 63]	≤ 2000 nM
CC(C)O[C@@H]1CC2(CCN(C(=O)c3ccc(S(=O)(=O)C(C)C)cc3)CC2)Oc2ccc(F)cc21 [Compound 68]	≤ 2000 nM
CC(C)Oc1ccc(C(=O)N2CCC3(CC2)C[C@@H](OC(C)C)c2cc(F)ccc2O3)c(OC(F)F)c1 [Compound 55]	≤ 2000 nM
COc1cc(C(=O)N2CCC3(CC2)Oc2ccccc2CC3OC(C)C)ccc1OC(C)C (centres unmarked) [Compound 51]	≤ 2000 nM
CC(C)O[C@@H]1CC2(CCN(C(=O)c3ccc(N4CCC[C@H]4C)cn3)CC2)Oc2ccc(F)cc21 [Compound 75]	≤ 2000 nM
COc1cc(C(=O)N2CCC3(CC2)C[C@@H](OC(C)C)c2ccccc2O3)ccc1C(C)(C)CO [Compound 160]	≤ 2000 nM
